The values below come from EP4806899A1, “FUSED RING DERIVATIVE, PREPARATION METHOD THEREFOR AND USE THEREOF IN MEDICINE” (Shanghai Qilu Pharmaceutical Research and Development …, priority 2023, dated 2025).

The structures appear in SMILES notation.

A short description of the data set: in vivo. Conditions: rat, in vivo, po, 10 mg/kg.

Description: Mice and rats were used as test animals to study the pharmacokinetic behavior of the compounds of the present disclosure in plasma following gavage administration (P.O.). Plasma samples were collected at specific time points, compound concentrations in plasma were detected by LC-MS/MS, and pharmacokinetic parameters were calculated to evaluate the pharmacokinetics.
• Mice, CD-1, male, Zhejiang Vital River Laboratory Animal Technology Co., Ltd. • Rats, Sprague-Dawley, male, Zhejiang Vital River Laboratory Animal Technology Co., Ltd., Shanghai Jihui Experimental Animal Breeding Co., Ltd.
After administration to mice and rats, venous blood samples of 0.03 mL and 0.2 mL, respectively, were collected at 0.0833 (IV), 0.25, 0.5, 1, 2, 4, 8, and 24 hours and placed in EDTA-K2 test tubes. Plasma was separated by centrifugation at 4 °C, 4000 g for 5 minutes and stored at -80 °C.
• 1) 50 µL of plasma sample was precipitated by adding 200 µL of acetonitrile, vortex mixed, and centrifuged for 15 minutes. • 2) The processed supernatant was diluted with water and analyzed by LC/MS/MS to determine the concentration of the test compound.
Pharmacokinetic parameters were calculated using WinNonlin 8.3. […] Cmax represents the maximum plasma concentration, T1/2 represents the terminal elimination half-life, MRTInf represents the mean residence time, and AUC represents the area under the plasma concentration-time curve.

For `CCC(=O)N[C@@H]1CCOc2c(-c3ccc4c(c3)CCC(=O)N4C)cncc21` [Compound A02-P2], the exposure AUC(0-t) at 24 h was determined as 190 µM·h, the peak level (Cmax) was 22.7 µM, the MRT inf is 5.3 h and the half-life was 3.47 h.

Usually AUC(0-t) stands for exposure summed from dosing to a finite time, without extrapolation to infinity. A higher AUC(0-t) goes with more exposure. Broadly, the Cmax is the highest concentration seen after dosing. One may read the MRT inf as the average time that molecules of a dose stay in the body. In general, half-life refers to the time in which the quantity being followed falls by half. Read a high half-life as slow loss.
